Assay results from ChEMBL document CHEMBL2113921, “Open Source Malaria Deposition 1. http://malaria.ourexperiment.org” (2013).
In brackets after ≈: the same amount, converted by molar mass. One block for each compound: values may come before it. Activity calls are given as the source filed them. The calls are words filed in the database; no cut-off is given here.

Columns and labels:
[1] = tested on: Plasmodium falciparum K1; test: OSM: Percent inhibition of Plasmodium falciparum K1 growth at 120 uM. Avery Group Griffith.; type: functional
[2] = OSM: HEK293 cytotoxicity assay. Duplicate point single experiment at 120 uM. Avery Group, Griffith.; type: toxicity, cell-based; conditions: human, HEK293 cells; read-out: Inhibition
[3] = tested on: Plasmodium falciparum; test: OSM: Percent inhibition of Plasmodium falciparum 3D7 growth at 120 uM. Avery Group Griffith.; type: functional
[4] = tested on: Plasmodium falciparum; test: OSM: Inhibition of Plasmodium falciparum 3D7 growth. IC50 values determined from 21 point dose response curves. Avery Group Griffith.; type: functional, organism-based
[5] = tested on: Plasmodium falciparum; test: OSM: Inhibition of Plasmodium falciparum 3D7 growth using a SYBR green I fluorescence based assay. Dose response curves were generated comprising of 8 points using a 2-fold serial dilution for the maximum final concentration of 1000 nM. Ralph Group, Bio21.; type: functional, organism-based
[6] = tested on: Plasmodium falciparum; test: OSM: Inhibition of Plasmodium falciparum 3D7 growth using a SYBR green I fluorescence based assay. GSK Tres Cantos.; type: functional, organism-based
[7] = OSM: Kinetic solubility pH 6.5 isotonic phosphate buffer.; type: ADME
[8] = OSM: Microsomal stability: 0.5 uM substrate, 0.4 mg/mL protein, NADPH cofactor). Analysed by LC/MS. In vitro CLint (uL/min/mg protein).; type: ADME, Microsome; conditions: human, microsomes
[9] = OSM: Microsomal stability: 0.5 uM substrate, 0.4 mg/mL protein, NADPH cofactor. Analysed by LC/MS. Degradation half life (min).; type: ADME, Microsome; conditions: human, microsomes
[10] = OSM: Microsomal stability: 0.5 uM substrate, 0.4 mg/mL protein, NADPH cofactor. Analysed by LC/MS. Degradation rate classification.; type: ADME, Microsome; conditions: human, microsomes
[11] = tested on: Plasmodium falciparum; test: OSM: Late stage gametocytes. IC50 values determined from 21 point dose response curves. Avery Group Griffith.; type: functional, organism-based; conditions: Pfs16-GFP transgenic NF54
[12] = tested on: Plasmodium falciparum K1; test: OSM: Inhibition of Plasmodium falciparum K1 growth. IC50 values determined from 21 point dose response curves. Avery Group Griffith.; type: functional, organism-based
[13] = tested on: Plasmodium falciparum; test: OSM: Percent inhibition of Plasmodium falciparum 3D7 growth at 80 uM. Avery Group Griffith.; type: functional
[14] = tested on: Plasmodium falciparum; test: OSM: Percent inhibition of Plasmodium falciparum 3D7 growth at 100 uM. Avery Group Griffith.; type: functional
[15] = tested on: Plasmodium falciparum; test: OSM: Percent inhibition of Plasmodium falciparum 3D7 growth at 40 uM. Avery Group Griffith.; type: functional
[16] = tested on: Plasmodium falciparum; test: OSM: CSIR assay 3D7: Compounds were tested for inhibition of Plasmodium falciparum growth using a SYBR green I fluorescence based assay.; type: functional, organism-based
[17] = tested on: Plasmodium falciparum K1; test: OSM: CSIR assay K1: Compounds were tested for inhibition of Plasmodium falciparum growth using a SYBR green I fluorescence based assay.; type: functional, organism-based
[18] = OSM: Kinetic solubility pH 2 0.01 M HCl ug/mL.; type: ADME
[19] = target: Voltage-gated inwardly rectifying potassium channel KCNH2 (Homo sapiens, UniProt Q12809); test: OSM: hERG, IC50 uM (Essen Bioscience): IonWorks patch clamp electrophysiology. 8 point concentration-response curves were generated using 3-fold serial dilutions from the maximum final assay concentration of 33 uM.; type: functional
[20] = tested on: Plasmodium berghei; test: OSM: Mice are infected intravenously with parasitized red blood cells on day 0 (2 x 10^7 parasitized erythrocytes per ml). Experimental mice are generally treated at 4, 24, 48, and 72 hours post-infection with an oral dose of the compound (50 mg/kg, 4-day test by Peters) and are compared to an infected control group for reduction in parasitaemia on day 4 (96 hours post-infection) as a percentage.; type: functional, organism-based; conditions: Mus musculus; Swiss; Plasma

Sequence of Voltage-gated inwardly rectifying potassium channel KCNH2 (Q12809 whole entry): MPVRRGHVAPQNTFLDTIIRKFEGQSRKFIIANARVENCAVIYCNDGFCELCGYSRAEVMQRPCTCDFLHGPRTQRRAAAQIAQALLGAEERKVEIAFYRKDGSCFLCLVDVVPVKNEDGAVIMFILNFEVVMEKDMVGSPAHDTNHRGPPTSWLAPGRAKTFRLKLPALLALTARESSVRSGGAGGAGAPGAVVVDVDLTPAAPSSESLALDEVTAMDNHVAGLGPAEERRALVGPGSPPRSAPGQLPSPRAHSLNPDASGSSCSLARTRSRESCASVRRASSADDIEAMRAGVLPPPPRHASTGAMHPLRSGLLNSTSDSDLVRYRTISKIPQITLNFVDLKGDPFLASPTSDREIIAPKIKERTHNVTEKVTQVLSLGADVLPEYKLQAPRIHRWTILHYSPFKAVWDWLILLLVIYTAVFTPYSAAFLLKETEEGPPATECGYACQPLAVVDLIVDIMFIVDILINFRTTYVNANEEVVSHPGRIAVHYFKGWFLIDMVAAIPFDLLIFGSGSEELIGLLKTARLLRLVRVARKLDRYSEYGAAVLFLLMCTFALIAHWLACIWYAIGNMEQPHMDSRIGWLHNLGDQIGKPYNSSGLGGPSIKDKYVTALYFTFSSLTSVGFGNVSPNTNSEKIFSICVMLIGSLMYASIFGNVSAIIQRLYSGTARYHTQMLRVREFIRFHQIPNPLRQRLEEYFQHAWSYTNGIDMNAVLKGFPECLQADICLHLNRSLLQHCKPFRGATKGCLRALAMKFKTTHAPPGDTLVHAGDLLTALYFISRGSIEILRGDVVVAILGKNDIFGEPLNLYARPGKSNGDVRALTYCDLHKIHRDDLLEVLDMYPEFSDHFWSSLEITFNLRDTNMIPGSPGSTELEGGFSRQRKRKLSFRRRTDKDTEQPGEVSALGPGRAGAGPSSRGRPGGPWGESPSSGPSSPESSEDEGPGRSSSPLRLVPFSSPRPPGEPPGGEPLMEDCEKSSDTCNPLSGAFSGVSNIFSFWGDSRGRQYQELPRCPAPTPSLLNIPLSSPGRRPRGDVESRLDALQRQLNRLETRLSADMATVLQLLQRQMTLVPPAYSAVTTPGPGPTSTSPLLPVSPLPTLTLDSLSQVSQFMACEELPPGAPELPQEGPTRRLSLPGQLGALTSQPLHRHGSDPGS

SMILES: Cc1cc(C=O)c(C)n1-c1ccccc1
inhibition at 120 µM [1]: 80%
cytotoxicity at 120 µM [2]: 25%
inhibition at 120 µM [3]: 55%

SMILES: Cc1cc(C(=O)O)c(C)n1-c1ccccc1
inhibition at 120 µM [1]: 50%
cytotoxicity at 120 µM [2]: 0%
inhibition at 120 µM [3]: 70%

solubility kinetic [7]: 3 µg/mL (≈ 6.8 µM)
microsomal CLint at 0.5 µM [8]: < 7 µL/min/mg
half-life at 0.5 µM [9]: > 4.17 h
Relative metabolic rate [10]: Low
IC50 [11]: 4 nM
SMILES: Cc1cc(/C=C2\S/C(=N\c3ccccc3)NC2=O)c(C)n1-c1ccc(C(F)(F)F)cc1
IC50 [4]: 2 nM
IC50 [5]: 205 nM
IC50 [6]: 29 nM

solubility kinetic [7]: 1 µg/mL (≈ 2.55 µM)
microsomal CLint at 0.5 µM [8]: 15 µL/min/mg
half-life at 0.5 µM [9]: 1.53 h
Relative metabolic rate [10]: Moderate
SMILES: Cc1cc(/C=C2\S/C(=N\c3ccccc3)NC2=O)c(C)n1-c1ccc(F)cc1
IC50 [4]: 176 nM
cytotoxicity at 120 µM [2]: 25%
IC50 [12]: 361 nM

SMILES: Cc1c(NC(=O)CNC(=O)c2ccccc2)c(=O)n(-c2ccccc2)n1C
IC50 [6]: > 5000 nM
inhibition at 80 µM [13]: 0%

IC50 [11]: 2960 nM
SMILES: COc1ccc2nc3cc(Cl)ccc3c(Nc3cc(CN4CCCC4)c(O)c(CN4CCCC4)c3)c2n1 [PYRONARIDINE]
IC50 [4]: 3.2 nM

SMILES: CCOC(=O)c1cc(C)n(-c2ccccc2)c1C
inhibition at 120 µM [1]: 0%
cytotoxicity at 120 µM [2]: 0%
inhibition at 120 µM [3]: 80%

SMILES: O=C1N=C(Nc2ccccc2)S/C1=C\c1ccccc1
IC50 [5]: > 1000 nM
IC50 [6]: > 5000 nM
inhibition at 100 µM [14]: 100%

SMILES: COc1ccc(-c2cc3ncnc(Oc4ccc(S(=O)(=O)N5CCOCC5)cc4)c3s2)cc1
inhibition at 40 µM [15]: 80%

solubility kinetic [7]: 5 µg/mL (≈ 9.81 µM)
microsomal CLint at 0.5 µM [8]: 14 µL/min/mg
half-life at 0.5 µM [9]: 2.02 h
Relative metabolic rate [10]: Moderate
SMILES: Cc1cc(/C=C2\S/C(=N\c3ccccc3)N(C3CCCC3)C2=O)c(C)n1-c1ccc(C(F)(F)F)cc1
IC50 [4]: 34 nM
IC50 [5]: 520 nM
IC50 [6]: 276 nM

solubility kinetic [7]: 4 µg/mL (≈ 7.85 µM)
microsomal CLint at 0.5 µM [8]: < 7 µL/min/mg
half-life at 0.5 µM [9]: > 4.17 h
Relative metabolic rate [10]: Low
IC50 [11]: 3 nM
SMILES: Cc1cc(/C=C2\S/C(=N\c3ccccc3)NC2=O)c(C)n1-c1cc(C(F)(F)F)cc(C(F)(F)F)c1
IC50 [4]: 1 nM
IC50 [5]: 5 nM
IC50 [6]: 7 nM

SMILES: Cc1cc(/C=C2\S/C(=N\c3ccccc3)N(c3ccccc3)C2=O)c(C)n1-c1cccc(F)c1
IC50 [16]: 3200 nM
IC50 [17]: > 5000 nM

SMILES: CNC(=O)CN(C)C(=O)c1cc(C)n(-c2ccc(Br)cc2)c1C
inhibition at 40 µM [15]: 70%

SMILES: Cc1cc(C=O)c(C)n1-c1ccc(F)cc1
IC50 [6]: > 5000 nM
inhibition at 120 µM [1]: 50%
cytotoxicity at 120 µM [2]: 25%
inhibition at 120 µM [3]: 60%

SMILES: CCOC(=O)c1cc(C)n(-c2ccc(C)cc2)c1C
inhibition at 120 µM [1]: 50%
cytotoxicity at 120 µM [2]: 0%
inhibition at 120 µM [3]: 85%

SMILES: Cc1cc(C(=O)NCC(=O)Nc2c(C)n(C)n(-c3ccccc3)c2=O)c(C)n1-c1ccc(F)cc1
IC50 [4]: 31000 nM
IC50 [5]: > 1000 nM
IC50 [6]: > 5000 nM

SMILES: Cc1cc(C(=O)Nc2c(C)n(C)n(-c3ccccc3)c2=O)c(C)n1-c1ccc(F)cc1
inhibition at 80 µM [13]: 100%

IC50 [11]: 28 nM
SMILES: CC(=O)N(C1=NC(=O)/C(=C/c2cc(C)n(-c3ccc(F)cc3)c2C)S1)c1ccccc1
IC50 [4]: 47 nM
IC50 [6]: 47 nM
cytotoxicity at 120 µM [2]: 75%
Relative metabolic rate [10]: Rapid non-NADPH acetamide hydrolysis to OSM-S-10
IC50 [12]: 66 nM

SMILES: CCN(CC)CCCC(C)Nc1ccnc2cc(Cl)ccc12 (centres undefined) [CHLOROQUINE]
cytotoxicity at 120 µM [2]: 100%
IC50 [17]: 235 nM
IC50 [12]: 266 nM

SMILES: C[C@@H]1CC[C@H]2[C@@H](C)C(=O)O[C@@H]3O[C@@]4(C)CC[C@@H]1[C@]32OO4 [ARTEMISININ]
IC50 [4]: 41100 nM
cytotoxicity at 120 µM [2]: 25%
IC50 [12]: 1 nM

solubility kinetic [18]: 50 µg/mL (≈ 172 µM)
solubility kinetic [7]: 50 µg/mL (≈ 172 µM)
microsomal CLint at 0.5 µM [8]: 29 µL/min/mg
half-life at 0.5 µM [9]: 0.983 h
Relative metabolic rate [10]: Moderate
SMILES: Cc1cc(C(=O)OCC(N)=O)c(C)n1-c1ccc(F)cc1
IC50 [4]: 404 nM
IC50 [6]: 818 nM
cytotoxicity at 120 µM [2]: 20%
IC50 [19]: > 33000 nM
Reduced_parasitemia [20]: inactive
IC50 [16]: 581 nM
IC50 [17]: 641 nM
IC50 [12]: 375 nM

SMILES: Cc1ccc(-n2c(C)cc(C(=O)O)c2C)cc1
inhibition at 120 µM [1]: 0%
cytotoxicity at 120 µM [2]: 0%
inhibition at 120 µM [3]: 70%
